These results are taken from ChEMBL document CHEMBL1777769, “Synthesis and characterisation of a novel tubulin-directed DO3A-colchicine conjugate with potential theranostic features” (Bioorg Med Chem Lett, 2011).

Format in all cases: functional, cell-based
Test [1] has as its system OVCAR-3. In words: Cytotoxicity against human OVCAR3 cells assessed as reduction in viable cells after 24 hrs by trypan blue exclusion assay.
In test [2] the test system is OVCAR-3. In words: Cytotoxicity against human OVCAR3 cells assessed as change in cell shape after 24 hrs by trypan blue exclusion assay.
Test [3] relates to OVCAR-3. In words: Cytotoxicity against human OVCAR3 cells assessed as cell death after 24 hrs by trypan blue exclusion assay.

Active and inactive are the calls of the source. The rule behind the calls is not given here.

With `COc1cc2c(c(OC)c1OC)-c1ccc(OC)c(=O)cc1[C@@H](NC(C)=O)CC2`, the result in the test on OVCAR-3 [1], in the test with OVCAR-3 [2] and with OVCAR-3 [3] was Active.
In the case of `COc1cc2c(c(OC)c1OC)-c1ccc(OC)c(=O)cc1[C@@H](NC(=O)CN1CCN(CC(=O)O)CCN(CC(=O)O)CCN(CC(=O)O)CC1)CC2`, the outcome in the test with OVCAR-3 [2] and in the test with OVCAR-3 [3] was Active.
